1 compound from EPA's ToxValDB 9.5 (doi:10.2903/j.efsa.2015.4100) can be followed below.

Each structure is given as a SMILES string. Converted amounts (≈) assume the structure as drawn.

One data set relates to Neomysis kadiakensis. The settings on record: mortality.
The next data set concerns Canidae. Conditions: chronic; duration: 52 weeks; oral; Dog Other; organ weight.
Another data set relates to Bibionidae. Conditions: chronic/long-term; duration: 28 days; reproduction.
Another data set deals with Pimephales promelas. Conditions: chronic/long-term; duration: 32 days; reproduction.
The test system of another data set is Apis mellifera. The settings on record: acute, mortality.
The subject of a further data set is Oncorhynchus mykiss. The settings on record: acute; duration: 96 hours; mortality.
In a further data set the test system is Daphnia magna. Conditions: chronic/long-term; duration: 21 days; reproduction.
The test system of the next data set is Aphidius rhopalosiphi. Put plainly: LR50; higher = less toxic. Conditions: not reported; mortality.
The subject of a further data set is Typhlodromus pyri. The data set is described as follows: LR50; higher = less toxic. Conditions: not reported; mortality.

For `CNC(=O)C(OC)c1ccccc1COc1cc(C)ccc1C` (centres undefined) [Mandestrobin], the LC50 was more than 1340 mg/kg-day with Colinus virginianus (acute, duration: 8 days, oral, diet, mortality); 0.43 µg/mL (≈ 1.37 µM) in the data set on Neomysis kadiakensis (acute, duration: 96 hours); 84 mg/kg with Tagia sp. (acute, duration: 14 days, mortality); 0.84 µg/mL (≈ 2.68 µM) in the data set on Oncorhynchus mykiss. The LD50 in the data set with Colinus virginianus (acute, oral, mortality) was more than 2250 mg/kg-day; in the data set on Rattus norvegicus (acute, oral, mortality), more than 200 mg/kg-day; in the data set on Apis mellifera (dermal) it was more than 100 µg/piece; in the data set on Apis mellifera (oral, unspecified) it was more than 111 µg/piece. Moreover, the NOEC was found to be 91.1 mg/kg-day with Colinus virginianus (reproduction developmental, duration: 21 weeks, reproduction); 0.0036 mg/L with Neomysis kadiakensis (chronic/long-term, duration: 36 days); 3.75 mg/kg with Tagia sp. (chronic/long-term, duration: 56 days); 8.1 mg/L in the data set with Bibionidae; 0.15 mg/L in the data set with Pimephales promelas; 0.56 mg/L in the data set with Daphnia magna. Also, the no-observed-adverse-effect level (NOAEL) with Canidae was found to be 19 mg/kg-day; in the data set with Rattus norvegicus (reproduction developmental) it was 163 mg/kg-day. The compound further gave an LOAEL in the data set with Rattus norvegicus (reproduction developmental, organ weight) of 60.2 mg/kg-day. Moreover, the LR50 with Aphidius rhopalosiphi and in the data set with Typhlodromus pyri was more than 1000 g/ha throughout.

The term NOAEL denotes the highest dose or exposure tested at which no adverse effect was seen. What is called LOAEL is the lowest dose or exposure tested at which an adverse effect was seen.
